Reference: patent US20260042764A1, “COMPOSITIONS AND METHODS FOR INHIBITION OF KRAS” (TheRas, Inc., priority 2022, published 2026)
pIC50: −log10 of the molar value.

Key:
AsPC-1 cells (KRAS G12D) [1] = assay: Cell-based pERK HTRF assay in AsPC-1 cells (Biological Example 5)
Description: (§1) Biological Example 5: Cell-based PERK HTRF assay in AsPC-1, SW1900, HPAC, Capan-2, RKN, H358, HCT116, KP-2, H1573, A549, MKN1, and HT1080 cells
(§2) The inhibition of ERK phosphorylation, as measured using the HTRF Advanced Phospho-ERK 1/2 (Thr202/Tyr204) Detection Assay kit (Perkin Elmer), was used to determine the effectiveness of test compounds in disrupting KRAS-driven protein/effector signaling in cells.
(§3) On day 1, cells were seeded into 96-well plates at 2.5×10^4 cells/well in 100 μL of complete growth media supplemented with 10% fetal bovine serum (FBS) and incubated at 37° C., in the presence of 5% CO2.
(§4) On day 2, cells were treated with compounds diluted in DMSO at 0.25% final DMSO concentration. Compounds were dosed in a 9-point concentration curve with three-fold dilution between concentrations. Cells were incubated in the presence of compound for two hours at 37° C. Following this treatment period, cells were harvested by aspirating the media, adding 40 μL of kit-supplied 1x lysis buffer per well, and shaking for 30 minutes at 250 rpm at room temperature.
(§5) Following cell lysis, samples were homogenized by pipetting up and down twenty times and 16 μL of cell lysate per well was transferred from the 96-well cell culture plate to two wells of a 384-well detection plate. A complete detection buffer was prepared by diluting D2 and Eu Cryptate antibodies 1:20 in kit-provided detection solution, 4 μL of complete detection buffer was then added to each well with lysate. Plates were incubated with gentle rocking for 24 hours at 4° C.
(§6) Following this incubation period, plates were centrifuged at 500×g for one minute and analyzed on a CLARIOstar plate reader. Data was imported into Microsoft Excel and the signal from the 665 nm channel was divided by the signal from the 620 nm channel. % pERK was calculated as: […]
(§7) Data was imported to the Prism software package (Graphpad) and EC50 values were calculated using the log (inhibitor) vs, response—variable slopc (Four parameters) model.

SW1900 cells (KRAS G12D) [2] = assay: Cell-based pERK HTRF assay in SW1900 cells (Biological Example 5)
Description: as §1, §2, §3, §4, §5, §6, §7

HPAC cells (KRAS G12D) [3] = assay: Cell-based pERK HTRF assay in HPAC cells (Biological Example 5); details: Homo sapiens, HPAC
Description: as §1, §2, §3, §4, §5, §6, §7

[4] = system: Capan-2 cells (KRAS G12V); assay: Cell-based pERK HTRF assay in Capan-2 cells (Biological Example 5)
Description: as §1, §2, §3, §4, §5, §6, §7

RKN cells (KRAS G12V) [5] = assay: Cell-based pERK HTRF assay in RKN cells (Biological Example 5)
Description: as §1, §2, §3, §4, §5, §6, §7

H358 cells (KRAS G12C) [6] = assay: Cell-based pERK HTRF assay in H358 cells (Biological Example 5)
Description: as §1, §2, §3, §4, §5, §6, §7

[7] = system: MKN1 cells (KRAS amplification); assay: Cell-based pERK HTRF assay in MKN1 cells (Biological Example 5)
Description: as §1, §2, §3, §4, §5, §6, §7

AsPC-1 cells (KRAS G12D) [8] = assay: 3D Cell viability assay in AsPC-1 cells (Biological Example 6); assay type: cell-based; details: AsPC-1 (KRAS G12D) spheroids, 72 hours
Description: (§8) Biological Example 6: 3D Cell viability assay in AsPC-1, SW1900, HPAC, Capan-2, RKN, H358, HCT116, KP-2, H1573, A549, MKN1, and HT1080 cells
(§9) The inhibition of cellular viability as a result of test compound treatment in a spheroid assay was measured using the CellTiter-Glow 3D Cell Viability Assay (Promega).
(§10) On Day 1, 1000 cells per well were seeded in 150 μL of complete growth media supplemented with 10% fetal bovine serum (FBS) and incubated at 37° C., in the presence of 5% CO2 in 96-well ultra-low attachment microplates (Corning) for 48 hours undisturbed to allow spheroids to form.
(§11) Following spheroid formation, cells were treated with compounds diluted in DMSO at 0.25% final DMSO concentration. Compounds were dosed in a 9-point concentration curve with three-fold dilution between concentrations. Cells were incubated in the presence of compound for 72 hours at 37° C., in the presence of 5% CO2.
(§12) Following this incubation period, the kit-provided CTG reagent was allowed to equilibrate for 30 minutes at room temperature, 150 μL of equilibrated CTG reagent was added to each well, and the plate was sealed before shaking at 250 rpm for 10 minutes at room temperature to lyse the cells, 150 μL of lysate per well was transferred to a 96-well plate and luminescence was read on a CLARIOstar plate reader.
(§13) Data was imported into the Prism software package (Graphpad) and EC50 values were calculated using the log (inhibitor) vs, response—variable slope (Four parameters) model.

SW1900 cells (KRAS G12D) [9] = assay: 3D Cell viability assay in SW1900 cells (Biological Example 6); assay type: cell-based; details: SW1990 (text: SW1900, KRAS G12D) spheroids, 72 hours
Description: as §8, §9, §10, §11, §12, §13

HPAC cells (KRAS G12D) [10] = assay: 3D Cell viability assay in HPAC cells (Biological Example 6); assay type: cell-based; details: Homo sapiens, HPAC, 72 h, HPAC (KRAS G12D) spheroids
Description: as §8, §9, §10, §11, §12, §13

RKN cells (KRAS G12V) [11] = assay: 3D Cell viability assay in RKN cells (Biological Example 6); assay type: cell-based; details: RKN (KRAS G12V) spheroids, 72 hours
Description: as §8, §9, §10, §11, §12, §13

H358 cells (KRAS G12C) [12] = assay: 3D Cell viability assay in H358 cells (Biological Example 6); assay type: cell-based; details: H358 (KRAS G12C) spheroids, 72 hours
Description: as §8, §9, §10, §11, §12, §13

HCT116 cells (KRAS G13D) = assay: 3D Cell viability assay in HCT116 cells (Biological Example 6); assay type: cell-based; details: Homo sapiens, HCT-116; HCT116 (KRAS G13D) spheroids, 72 hours
Description: as §8, §9, §10, §11, §12, §13

HT1080 cells (NRAS) = assay: Cell-based pERK HTRF assay in HT1080 cells (Biological Example 5); details: Homo sapiens, HT-1080
Description: as §1, §2, §3, §4, §5, §6, §7

[13] = Homo sapiens, ASPC1, AsPC-1 (KRAS G12D) cells
[14] = Homo sapiens, SW1990, SW1990 cells (text: SW1900, KRAS G12D)
[15] = Homo sapiens, Capan-2, Capan-2 (KRAS G12V) cells
[16] = Homo sapiens, NCI-H358, H358 (KRAS G12C) cells
[17] = Homo sapiens, MKN-1, MKN cells (MKN1, KRAS amplification)

Structure (SMILES) | pIC50 (AsPC-1 cells (KRAS G12D) [1]; [13]) | pIC50 (SW1900 cells (KRAS G12D) [2]; [14]) | pIC50 (HPAC cells (KRAS G12D) [3]) | pIC50 [4, 15] | pIC50 (RKN cells (KRAS G12V) [5]) | pIC50 (H358 cells (KRAS G12C) [6]; [16]) | pIC50 [7, 17] | pIC50 (AsPC-1 cells (KRAS G12D) [8]; Homo sapiens, ASPC1) | pIC50 (SW1900 cells (KRAS G12D) [9]; Homo sapiens) | pIC50 (HPAC cells (KRAS G12D) [10]) | pIC50 (RKN cells (KRAS G12V) [11]) | pIC50 (H358 cells (KRAS G12C) [12]; Homo sapiens, NCI-H358) | further results
CCN(c1nc(OC[C@@]23CCCN2C[C@H](F)C3)nc2c(F)c(-c3ccc(F)c4sc(N)c(C#N)c34)c(C(F)(F)F)cc12)[C@H]1C[C@H](C)N(C(=O)N2CC(OC)C2)C1 (atropisomer, axis not shown) [Compound 764] | ≥ 7.00 | ≥ 7.00 | 6.00 to 7.00 | ≥ 7.00 | ≥ 7.00 | ≥ 7.00 | ≥ 7.00 | ≥ 7.00 | ≥ 7.00 | < 6.00 | ≥ 7.00 | ≥ 7.00 | 
CCN(c1nc(OC[C@@]23CCCN2C[C@H](F)C3)nc2c(F)c(-c3ccc(F)c4sc(N)c(C#N)c34)c(C(F)(F)F)cc12)[C@H]1C[C@H](COC)N(C(=O)C2CC2)C1 (atropisomer, axis not shown) [Compound 696] | ≥ 7.00 | ≥ 7.00 |  | ≥ 7.00 | ≥ 7.00 | ≥ 7.00 | ≥ 7.00 | ≥ 7.00 | ≥ 7.00 |  | ≥ 7.00 | ≥ 7.00 | pIC50 (HCT116 cells (KRAS G13D)): 6.00 to 7.00
C/C=C/C(=O)N1CC[C@H](N(CC)c2nc(OC[C@@]34CCCN3C[C@H](F)C4)nc3c(F)c(-c4ccc(F)c5sc(N)c(C#N)c45)c(C(F)(F)F)cc23)C1 (atropisomer, axis not shown) [Compound 674] | ≥ 7.00 | ≥ 7.00 | ≥ 7.00 | ≥ 7.00 | ≥ 7.00 | ≥ 7.00 | ≥ 7.00 | ≥ 7.00 | ≥ 7.00 | ≥ 7.00 | ≥ 7.00 | ≥ 7.00 | 
C[C@H]1Cn2nc(C(=O)N(C)C)cc2CN1c1nc(OC[C@@]23CCCN2C[C@H](F)C3)nc2c(F)c(-c3ccc(F)c4sc(N)c(C#N)c34)c(C(F)(F)F)cc12 (atropisomer, axis not shown) [Compound 610] | ≥ 7.00 | ≥ 7.00 | ≥ 7.00 | ≥ 7.00 | ≥ 7.00 | ≥ 7.00 | ≥ 7.00 | ≥ 7.00 | ≥ 7.00 | 6.00 to 7.00 | ≥ 7.00 | ≥ 7.00 | 
CCN(c1nc(OC[C@@]23CCCN2C[C@H](F)C3)nc2c(F)c(-c3ccc(F)c4sc(N)c(C#N)c34)c(C(F)(F)F)cc12)[C@H]1CCN(C(=O)C2CC2)[C@@H]1C (atropisomer, axis not shown) [Compound 579] | ≥ 7.00 | ≥ 7.00 | < 6.00 | ≥ 7.00 | ≥ 7.00 | ≥ 7.00 | ≥ 7.00 | ≥ 7.00 | ≥ 7.00 | 6.00 to 7.00 | ≥ 7.00 | ≥ 7.00 | 
CCN(c1nc(OC[C@@]23CCCN2C[C@H](F)C3)nc2c(F)c(-c3ccc(F)c4sc(N)c(C#N)c34)c(C(F)(F)F)cc12)[C@H]1C[C@H](C)N(C(C)=O)C1 [Compound 463] | 6.00 to 7.00 | ≥ 7.00 | 6.00 to 7.00 | ≥ 7.00 |  | ≥ 7.00 | ≥ 7.00 | ≥ 7.00 | ≥ 7.00 | < 6.00 |  | ≥ 7.00 | pIC50 (HT1080 cells (NRAS)): < 6.00
CCN(c1nc(OC[C@@]23CCCN2C[C@H](F)C3)nc2c(F)c(-c3ccc(F)c4sc(N)c(C#N)c34)c(C(F)(F)F)cc12)[C@H]1C[C@@H](C)N(C(=O)C2COC2)C1 (atropisomer, axis not shown) [Compound 586] | ≥ 7.00 | ≥ 7.00 | 6.00 to 7.00 | ≥ 7.00 | ≥ 7.00 | ≥ 7.00 | ≥ 7.00 | ≥ 7.00 | ≥ 7.00 | ≥ 7.00 | ≥ 7.00 | ≥ 7.00 | 
CCN(c1nc(OC[C@@]23CCCN2C[C@H](F)C3)nc2c(F)c(-c3ccc(F)c4sc(N)c(C#N)c34)c(C(F)(F)F)cc12)[C@H]1C[C@H](C)N(C(=O)OC)C1 (atropisomer, axis not shown) [Compound 704] | ≥ 7.00 | ≥ 7.00 |  | ≥ 7.00 | ≥ 7.00 | ≥ 7.00 | ≥ 7.00 | ≥ 7.00 | ≥ 7.00 |  | ≥ 7.00 | ≥ 7.00 | 
CCN(c1nc(OC[C@@]23CCCN2C[C@H](F)C3)nc2c(F)c(-c3ccc(F)c4sc(N)c(C#N)c34)c(C(F)(F)F)cc12)[C@H]1CCN(C(=O)N2CC(F)C2)C1 (atropisomer, axis not shown) [Compound 606] | ≥ 7.00 | ≥ 7.00 | ≥ 7.00 | ≥ 7.00 | ≥ 7.00 | ≥ 7.00 | ≥ 7.00 | ≥ 7.00 | ≥ 7.00 | 6.00 to 7.00 | ≥ 7.00 | ≥ 7.00 | 
CCN(c1nc(OC[C@@]23CCCN2C[C@H](F)C3)nc2c(F)c(-c3ccc(F)c4sc(N)c(C#N)c34)c(C(F)(F)F)cc12)[C@H]1CCN(C(=O)c2ncco2)C1 (atropisomer, axis not shown) [Compound 584] | ≥ 7.00 | ≥ 7.00 | 6.00 to 7.00 | ≥ 7.00 | ≥ 7.00 | ≥ 7.00 | ≥ 7.00 | ≥ 7.00 | ≥ 7.00 | ≥ 7.00 | ≥ 7.00 | ≥ 7.00 | 
CCN(c1nc(OCC23CCCN2CC(F)C3)nc2c(F)c(-c3ccc(F)c4sc(N)c(C#N)c34)c(C(F)(F)F)cc12)C1CC(C)N(C(=O)N2CC(F)C2)C1 (stereo not drawn) [Compound 759] |  |  |  |  | ≥ 7.00 |  |  |  |  |  | ≥ 7.00 |  | pIC50 (AsPC-1 cells (KRAS G12D) [1]; AsPC-1 (KRAS G12D) cells): ≥ 7.00; pIC50 (SW1900 cells (KRAS G12D) [2]; SW1990 cells (text: SW1900, KRAS G12D)): ≥ 7.00; pIC50 ([4]; Capan-2 (KRAS G12V) cells): ≥ 7.00; pIC50 (H358 cells (KRAS G12C) [6]; H358 (KRAS G12C) cells): ≥ 7.00; pIC50 ([7]; MKN cells (MKN1, KRAS amplification)): ≥ 7.00; pIC50 (AsPC-1 cells (KRAS G12D) [8]): ≥ 7.00; pIC50 (SW1900 cells (KRAS G12D) [9]): ≥ 7.00; pIC50 (H358 cells (KRAS G12C) [12]): ≥ 7.00
